Read-outs that look alike come from different tables or passages of the source. Marks after values point to notes of the source that are not given here.
What was measured:
[1] = tested on: postmenopausal women with osteoporosis; conditions: in vivo
Description: (§1) Safety evaluations performed in the ACTIVE trial included physical examinations, vital signs, 12-lead electrocardiograms, or ECGs, clinical laboratory tests and monitoring, and recording of adverse events. Specific safety assessments included pre-dose and post-dose (four hours) determination of serum calcium, determination of creatinine clearance, post-dose ECG assessments at selected visits, and assessments of postural hypotension (60 minutes post-dose) at selected clinic visits.
(§2) The ACTIVE trial also evaluated several potential safety measures, including blood calcium levels, orthostatic hypotension, nausea, dizziness, and injection-site reactions.

[2] = tested on: postmenopausal women with osteoporosis; conditions: in vivo; remark: listed apart in the source
Description: All subjects received supplemental calcium (500-1000 mg) and vitamin D (400-800 IU) per local practice. […] Blood calcium levels were assessed 4-hours and 24-hours after drug administration. Subjects were monitored for adverse events (AEs) and local tolerance at the injection site at each visit. Clinical and laboratory safety parameters, electrocardiograms, were also measured at each study visit.
Efficacy and safety were assessed using all randomized patients who received at least one dose of study drug. Baseline characteristics and safety parameters were summarized using descriptive statistics. […] All hypotheses were tested at the 2-sided 5% significance level.

[3] = tested on: postmenopausal women with osteoporosis; experiment: ACTIVE trial: adverse events; conditions: 18 months; abaloparatide 80 μg (n = 822), teriparatide 20 μg (n = 818)
Description: as §1, §2

[4] = tested on: postmenopausal women with osteoporosis; experiment: ACTIVExtend study: fractures at month 25 (abaloparatide or placebo 18 months, then alendronate 6 months); type: in vivo, human; conditions: abaloparatide 80 μg/day or placebo 18 months
[5] = tested on: postmenopausal women with osteoporosis
[6] = during alendronate treatment, ACTIVExtend

## CC[C@H](C)[C@H](NC(=O)[C@H](CO)NC(=O)[C@H](CCCCN)NC(=O)CNC(=O)[C@H](CCCCN)NC(=O)[C@H](CC(=O)O)NC(=O)[C@H](Cc1cnc[nH]1)NC(=O)[C@H](CC(C)C)NC(=O)[C@H](CC(C)C)NC(=O)[C@H](CCC(N)=O)NC(=O)[C@H](Cc1cnc[nH]1)NC(=O)[C@H](CCC(=O)O)NC(=O)[C@H](CO)NC(=O)[C@@H](NC(=O)[C@H](C)N)C(C)C)C(=O)N[C@@H](CCC(N)=O)C(=O)N[C@@H](CC(=O)O)C(=O)N[C@@H](CC(C)C)C(=O)N[C@@H](CCCNC(=N)N)C(=O)N[C@@H](CCCNC(=N)N)C(=O)N[C@@H](CCCNC(=N)N)C(=O)N[C@@H](CCC(=O)O)C(=O)N[C@@H](CC(C)C)C(=O)N[C@@H](CC(C)C)C(=O)N[C@@H](CCC(=O)O)C(=O)N[C@@H](CCCCN)C(=O)N[C@@H](CC(C)C)C(=O)N[C@@H](CC(C)C)C(=O)NC(C)(C)C(=O)N[C@@H](CCCCN)C(=O)N[C@@H](CC(C)C)C(=O)N[C@@H](Cc1cnc[nH]1)C(=O)N[C@H](C(=O)N[C@@H](C)C(N)=O)[C@@H](C)O [abaloparatide, [Glu^22,25, Leu^23,28,31, Aib^29, Lys^26,30]hPTHrP(1-34)NH2]
[1]
  AE: Hypercalcemia (serum albumin-corrected calcium value ≧10.7 mg/dL): 3.41%^†
[2]
  Anti-abaloparatide antibody titer in positive patients: ≤ 1:20
  Patients with positive anti-abaloparatide antibody titer: 12%
[3]
  AE: Influenza: 6.3%

## alendronate [PBO/ALN]
[4]
  Fracture Rate, incident clinical fractures: 7.1%
  Fracture Rate, incident non-vertebral fractures: 5.5%
  Fracture Rate, major osteoporotic fractures: 4.6%
  Fracture Rate, new incident vertebral fractures: 4.4%
[5]; [6]
  AE: Abdominal pain, upper: 2.6%
  AE: Arthralgia: 4.7%
  AE: Back pain: 2.1%
  AE: Bone Pain: 1.2%
  AE: Diarrhea: 1.4%
  AE: Dyspepsia: 2.2%
  AE: Hypercalciuria: 1.6%
  AE: Hypertension: 2.1%
  AE: Nasopharyngitis: 1.4%
  AE: Pain in extremity: 2.4%
  AE: Upper respiratory tract infection: 4.5%
  AE: Urinary tract infection: 1.0%
[5]; human, in vivo
  AE: Influenza: 1.0%
